Test results published in the supplement of paper PMC6045584.

Compound: COCC[n+]1c2c(n(Cc3cnccn3)c1C)C(=O)c1ccccc1C2=O [YM155]
Test: area under dose-response curve of surviving fraction (unscaled, Aref=0) (surviving fraction x log10(nM)); higher = more resistant
Conditions: exposure time: 5 days; dose range 0.5-1000 nM
In short: (§1)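 Inhibitor was applied to tumour cell lines at eight concentrations (0.5 to 1000 nM) for five days in 384-well plates. Luminescence from CellTiter-Glo, scaled to DMSO-only wells, gave surviving fractions in three screens per line, and these were fitted by 3-parameter logistic regression with the drc R package. The area under the curve is an unscaled activity area. Aref was 0, and dose was on a log10 scale.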

| Test System | area under dose-response curve |
| --- | --- |
| U2OS BONE | 1.16 |
| H23 LUNG | 0.646 |
| DU4475 BREAST | 1.66 |
| SKBR3 BREAST | 1.36 |
| SUM149 BREAST | 1.31 |
| HS57T LUNG | 1.67 |

Compound: COc1cc2ncnc(Nc3ccc(F)c(Cl)c3)c2cc1OCCCN1CCOCC1 [GEFITINIB]
Test: as above
Conditions: exposure time: 5 days; dose range 0.5-1000 nM
In short: as §1

| Test System | area under dose-response curve |
| --- | --- |
| H23 LUNG | 2.37 |
| DU4475 BREAST | 3.01 |
| SKBR3 BREAST | 2.78 |
| SUM149 BREAST | 2.81 |
| HS57T LUNG | 3.31 |

Compound: CC(=O)c1c(C)c2cnc(Nc3ccc(N4CCNCC4)cn3)nc2n(C2CCCC2)c1=O
Test: as above
Conditions: exposure time: 5 days; dose range 0.5-1000 nM
In short: as §1

| Test System | area under dose-response curve |
| --- | --- |
| U2OS BONE | 3.41 |
| H23 LUNG | 3.51 |
| DU4475 BREAST | 3.51 |
| SKBR3 BREAST | 3.09 |
| SUM149 BREAST | 3.23 |
| HS57T LUNG | 3.56 |

Compound: CC(=O)O[C@H]1C(=O)[C@@]2(C)[C@H]([C@H](OC(=O)c3ccccc3)[C@]3(O)C[C@H](OC(=O)[C@H](O)[C@@H](NC(=O)c4ccccc4)c4ccccc4)C(C)=C1C3(C)C)[C@]1(OC(C)=O)CO[C@@H]1C[C@@H]2O [PACLITAXEL]
Test: as above
Conditions: exposure time: 5 days; dose range 0.5-1000 nM
In short: as §1

| Test System | area under dose-response curve |
| --- | --- |
| U2OS BONE | 1.15 |
| H23 LUNG | 0.876 |
| DU4475 BREAST | 0.884 |
| SKBR3 BREAST | 0.673 |
| SUM149 BREAST | 0.407 |
| HS57T LUNG | 0.449 |

Compound: C[C@]1(O)C[C@@H](c2nc(-c3ccc4ccc(-c5ccccc5)nc4c3)c3c(N)nccn32)C1 [OSI-906]
Test: as above
Conditions: exposure time: 5 days; dose range 0.5-1000 nM
In short: as §1

| Test System | area under dose-response curve |
| --- | --- |
| U2OS BONE | 3.08 |
| H23 LUNG | 2.81 |
| DU4475 BREAST | 2.23 |
| SKBR3 BREAST | 2.71 |
| SUM149 BREAST | 2.61 |
| HS57T LUNG | 2.92 |

Compound: Cc1ccc(-c2cc(C(F)(F)F)nn2-c2ccc(S(N)(=O)=O)cc2)cc1 [CELECOXIB]
Test: as above
Conditions: exposure time: 5 days; dose range 0.5-1000 nM
In short: as §1

| Test System | area under dose-response curve |
| --- | --- |
| U2OS BONE | 3.42 |
| H23 LUNG | 3.59 |
| DU4475 BREAST | 2.98 |
| SKBR3 BREAST | 3.44 |
| SUM149 BREAST | 3.68 |
| HS57T LUNG | 3.47 |

Compound: O=C(O)C1(C(=O)O)CCC1.[NH2-].[NH2-].[Pt+2] [CARBOPLATIN]
Test: as above
Conditions: exposure time: 5 days; dose range 0.5-1000 nM
In short: as §1

| Test System | area under dose-response curve |
| --- | --- |
| U2OS BONE | 3.52 |
| H23 LUNG | 3.55 |
| DU4475 BREAST | 3.22 |
| SKBR3 BREAST | 3.44 |
| SUM149 BREAST | 3.13 |
| HS57T LUNG | 3.58 |

Compound: CC[C@@]1(O)C(=O)OCc2c1cc1n(c2=O)Cc2cc3ccccc3nc2-1 [CAMPTOTHECIN]
Test: as above
Conditions: exposure time: 5 days; dose range 0.5-1000 nM
In short: as §1

| Test System | area under dose-response curve |
| --- | --- |
| U2OS BONE | 2.05 |
| H23 LUNG | 1.1 |
| DU4475 BREAST | 0.671 |
| SKBR3 BREAST | 1.42 |
| HS57T LUNG | 1.43 |

Compound: CC(=O)NCC(=O)N1[C@@H]2CC[C@H]1c1ccc(Nc3ncc(C(F)(F)F)c(NC4CCC4)n3)cc12
Test: as above
Conditions: exposure time: 5 days; dose range 0.5-1000 nM
In short: as §1

| Test System | area under dose-response curve |
| --- | --- |
| U2OS BONE | 2.43 |
| H23 LUNG | 2.73 |
| DU4475 BREAST | 1.69 |
| SUM149 BREAST | 2.36 |
